In patent US20030216571A1, “Tricyclic compounds” (priority 1999, published 2003):

Columns and labels:
Leukotriene D4 receptor = target: T1, Leukotriene D4 receptor (Cavia porcellus, UniProt Q2NNR5); test: Leukotriene D4 receptor binding test; conditions: binding inhibition constant (Ki) vs [3H] LTD4 0.2 nM, lung cell membrane fraction from guinea pigs, 25° C. for 30 minutes; for Ki: read-out: pKi value (converted)
T1 construct: As a receptor sample, a lung cell membrane fraction from guinea pigs was used; from tissue; host or cells: lung membrane fraction of Hartley male guinea pigs
T1 sequence (Q2NNR5 1-340): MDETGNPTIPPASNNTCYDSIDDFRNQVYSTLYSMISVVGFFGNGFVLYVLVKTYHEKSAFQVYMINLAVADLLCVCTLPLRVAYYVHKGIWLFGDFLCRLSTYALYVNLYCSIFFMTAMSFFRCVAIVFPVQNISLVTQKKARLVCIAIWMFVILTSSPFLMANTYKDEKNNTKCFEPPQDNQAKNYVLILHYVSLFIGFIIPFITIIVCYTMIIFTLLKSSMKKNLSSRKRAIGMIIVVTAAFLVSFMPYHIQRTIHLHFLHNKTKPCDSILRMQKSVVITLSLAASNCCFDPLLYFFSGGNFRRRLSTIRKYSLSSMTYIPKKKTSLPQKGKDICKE
Method: Leukotriene D4 Receptor Binding Test
As a receptor sample, a lung cell membrane fraction from guinea pigs was used. Preparation of the membrane fraction was carried out according to the method of Ahn et al. (Eur. J. Pharmacol., 127, 153-155 (1986)). Lungs of Hartley male guinea pigs (400 to 500 g body weight, Nippon SLC Co.) were extracted, and perfused with a physiological saline, and then, adding 10 mM of PIPES, 10 mM of MgCl2 and 10 mM of CaCl2 buffer (pH 7.5) to the lung tissue and the mixture was homogenized. This homogenate was centrifuged at 70,000 xg for 10 minutes to obtain a membrane fraction.
Leukotriene D4 (LTD4) recepter binding test was carried out according to the method of Aharony, et al. (J. Pharmacol. Expl.Ther., 243, 921-926 (1987)). To 0.42 mg of the receptor sample were added 10 mM of PIPES, 10 mM of MgCl2 and 10 mM of CaCl2 buffer (pH 7.5) to make the total amount of 480 μl, and 10 μl of [^3H] LTD4 (NEN Life Science Products Co.) and 10 μl of a Test compound in dimethylsulfoxide were added to the mixture, and the resulting mixture was incubated at 25° C. for 30 minutes. The mixtures thus incubated were filtered through a glass fiber filter (Whatman Co., GF/C) using cell harvester (Brandel Co., M-30R). The filter were washed with 10 mM of Tris. and 100 mM of NaCl buffer (pH 7.5), and 5 ml of a liquid scintillator (NACALAI TESQUE INC., clearsol I), and radioactivity was measured by a liquid scintillation analyzer (Packard Co., 2000CA). When a dissociation constant (Kd) of LTD4 was to be obtained, [^3H] LTD4 with 0.03 to 0.5 nM was used, and 1 μM of non-radioactive LTD4 was added. When a binding inhibition constant (Ki) of the Test compound is to be meaured, [^3H] LTD4 with 0.2 nM was used. Kd and Ki are calculated according to the method of Bennett et al. (Neurotransmitter Receptor Binding, 2nd ed., edited by H. I. Yamamura et al., pp. 61-89, Raven Press (1985)).

[1] = tested on: Leukotriene D4 induced respiratory constriction; test: Leukotriene D4 induced respiratory constriction test; format: in vivo; conditions: p.o. 1 hr before i.v. LTD4; anesthetized Hartley male guinea pigs; respiratory inner pressure
Method: Leukotriene D4 Induced Respiratory Constriction Test
Respiratory constriction was measured by modifying the method of Konzett and Rossler (Arch. Exp. Pathol. Pharmakol., 195, pp. 71-74 (1940)). Hartley male guinea pigs (400 to 500 g body weight, Nippon SLC Co.) were anesthetized with pentobarbital (50 mg/kg, s.c.), and a cannula was inserted into the trachea to carry out artificial ventilation with an artificial ventilator (manufactured by Harvard Co., Model 683). An inner pressure of the respiratory tract was measured by a differential pressure transducer (Nihon Koden, TP-603T) connected to the respiratory cannula and it is used as an index of respiratory constriction.
LTD4 (0.03, 0.06, 0.13, 0.25, 0.5, 1 and 2 μg/kg, Sigma Co.) was intravenously administered from a cannula inserted into the right jugular vein from a low dose with an interval of 5 minutes to cause a respiratory constriction reaction and an increased amount of a respiratory inner pressure was measured. Test compound was suspended in 0.5% sodium carboxymethyl cellulose aqueous solution, and orally administered 1 hour before administration of LTD4. Animals were fasted for 24 hours before administration of the Test compound.
A2=(Dose of Compound administered)/{(ED50 of group to which Compound was added)/(ED50 of control group)−1}

Row | Compound | Ki (Leukotriene D4 receptor) [nM] | A2 (dose of Test compound required for shifting two-times the LTD4 dose-reaction curve of control group to higher dose side) [1] [µg/kg] | melting point [°C] | pKi value (Leukotriene D4 receptor)
1 | O=C(O)C(F)(F)F.O=C(O)CC1(CSC2c3cc(/C=C/c4ccc5cc(F)c(F)cc5n4)ccc3OCc3c(F)cccc32)CC1 (stereo not drawn) [Example 3, {1-[[2-[(E)-2-(6,7-difluoro-2-quinolinyl)ethenyl]-7-fluoro-6,11-dihydrodibenz[b,e]oxepin-11-yl]thiomethyl]cyclopropyl}acetic acid trifluoroacetic acid salt] | 0.158 | 3.6 | 174 to 179 | –
2 | O=C([O-])CCSC1c2ccccc2COc2ccc(/C=C/c3ccc4cc(F)c(F)cc4n3)cc21.[Na+] (stereo not drawn) [Example 5 (b), Sodium 3-{[2-[(E)-2-(6,7-difluoro-2-quinolinyl)ethenyl]-6,11-dihydrodibenz[b,e]oxepin-11-yl]thio}propionate] | 0.251 | 2.6 | 213 to 216 | –
3 | O=C([O-])CC1(CSC2c3ccccc3COc3ccc(/C=C/c4ccc5cc(F)c(F)cc5n4)cc32)CC1.[Na+] (stereo not drawn) [Example 7 (b), Sodium {1-[[2-[(E)-2-(6,7-difluoro-2-quinolinyl)ethenyl]-6,11-dihydrodibenz[b,e]oxepin-11-yl]thiomethyl]cyclopropyl}acetate] | 0.2 | 3.5 | 137 to 139 | –
4 | O=C(O)CCSC1c2cc(/C=C/c3ccc4cc(F)c(F)cc4n3)ccc2OCc2c(F)cccc21 (stereo not drawn) [Example 12, 3-{[2-[(E)-2-(6,7-difluoro-2-quinolinyl)ethenyl]-7-fluoro-6,11-dihydrodibenz[b,e]oxepin-11-yl]thio}propionic acid] | 0.158 | 4.9 | 224 to 227 | –
5 | N#Cc1cccc2c1COc1ccc(/C=C/c3ccc4cc(F)c(F)cc4n3)cc1C2SCCC(=O)[O-].[Na+] (stereo not drawn) [Example 13 (b), Sodium 3-{[7-cyano-2-[(E)-2-(6,7-difluoro-2-quinolinyl)ethenyl]-6,11-dihydrodibenz[b,e]oxepin-11-yl]thio}propionate] | 0.631 | 7.8 | 179 to 182 | –
6 | C#Cc1cccc2c1COc1ccc(/C=C/c3ccc4cc(F)c(F)cc4n3)cc1C2SCCC(=O)[O-].[Na+] (stereo not drawn) [Example 15, Sodium 3-{[2-[(E)-2-(6,7-difluoro-2-quinolinyl)ethenyl]-7-ethynyl-6,11-dihydrodibenz[b,e]oxepin-11-yl]thio}propionate] | 0.158 | 0.8 | 186 to 189 | –
7 | O=C([O-])CCCC1c2ccccc2COc2ccc(/C=C/c3ccc4cc(F)c(F)cc4n3)cc21.[Na+] (stereo not drawn) [Example 51 (c), Sodium 4-[2-[(E)-2-(6,7-difluoro-2-quinolinyl)ethenyl]-6,11-dihydrodibenz[b,e]oxepin-11-yl]butanoate] | 0.158 | 3.6 | – | –
8 | CC(C)(CC(=O)O)SC1c2ccccc2COc2ccc(/C=C/c3ccc4cc(F)c(F)cc4n3)cc21 (stereo not drawn) [Example 58, 3-{[2-[(E)-2-(6,7-difluoro-2-quinolinyl)ethenyl]-6,11-dihydrodibenz[b,e]oxepin-11-yl]thio}-3-methylbutanoic acid] | 0.501 | 6.4 | – | –
9 | Sodium [2-[(E)-2-(6,7-difluoro-2-quinolinyl)ethenyl]-6,11-dihydrodibenz[b,e]oxepin-11-yl]thioacetate [Example 4] | – | 3.7 | – | 9.8
